Test system: 857933-349-R-J2-PDC complex spheroids, viability
Assay: Anticancer human tumor 857933-349-R-J2-PDC patient-derived colon adenocarcinoma cell line growth inhibition [GQUAD]
Conditions: for IC50: curve of first compound; for viability, T/C: stronger effect = lower value; active means viability on the fitted dose curve at most 10% of control; inactive means the rest
Method in brief: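 Viability of tumor cells grown as complex spheroids with endothelial and stromal cells, exposed to drug combinations. Top concentration at or near clinical Cmax (else 10 microM), diluted in half-log increments.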

[1] = second compound 0.0316 µM, first compound 0.0316 µM
[2] = second compound 0.0316 µM, first compound 0.1 µM
[3] = second compound 0.0316 µM, first compound 0.316 µM
[4] = second compound 0.0316 µM, first compound 1 µM
[5] = second compound 0.0316 µM, first compound 3.16 µM
[6] = second compound 0.0316 µM, first compound 10 µM
[7] = second compound 0.1 µM, first compound 0.0316 µM
[8] = second compound 0.1 µM, first compound 0.1 µM
[9] = second compound 0.1 µM, first compound 0.316 µM
[10] = second compound 0.1 µM, first compound 1 µM
[11] = second compound 0.1 µM, first compound 3.16 µM
[12] = second compound 0.1 µM, first compound 10 µM
[13] = second compound 0.316 µM, first compound 0.0316 µM
[14] = second compound 0.316 µM, first compound 0.1 µM
[15] = second compound 0.316 µM, first compound 0.316 µM
[16] = second compound 0.316 µM, first compound 1 µM
[17] = second compound 0.316 µM, first compound 3.16 µM
[18] = second compound 0.316 µM, first compound 10 µM
[19] = second compound 1 µM, first compound 0.0316 µM
[20] = second compound 1 µM, first compound 0.1 µM
[21] = second compound 1 µM, first compound 0.316 µM
[22] = second compound 1 µM, first compound 1 µM
[23] = second compound 1 µM, first compound 3.16 µM
[24] = second compound 1 µM, first compound 10 µM
[25] = second compound 3.16 µM, first compound 0.0316 µM
[26] = second compound 3.16 µM, first compound 0.1 µM
[27] = second compound 3.16 µM, first compound 0.316 µM
[28] = second compound 3.16 µM, first compound 1 µM
[29] = second compound 3.16 µM, first compound 3.16 µM
[30] = second compound 3.16 µM, first compound 10 µM
[31] = second compound 10 µM, first compound 0.0316 µM
[32] = second compound 10 µM, first compound 0.1 µM
[33] = second compound 10 µM, first compound 0.316 µM
[34] = second compound 10 µM, first compound 1 µM
[35] = second compound 10 µM, first compound 3.16 µM
[36] = second compound 10 µM, first compound 10 µM
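Further: spheroids exposed to compounds for one week before readout.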
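Wherever viability, T/C is given: percent viability relative to vehicle DMSO wells taken as 100%.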

COc1cc(C2c3cc4c(cc3C(OC3OC5COC(C)OC5C(O)C3O)C3COC(=O)C23)OCO4)cc(OC)c1O (stereo not drawn) + Cc1[nH]c2ccc(F)cc2c1-c1nc2c3cccnc3c3ncccc3c2[nH]1
962 nM: IC50 (second compound 0.1 µM)
inactive: viability, T/C [1] 84.8% | viability, T/C [2] 62.7% | viability, T/C [3] 58% | viability, T/C [4] 53.8% | viability, T/C [5] 42.1% | viability, T/C [6] 24.6% | viability, T/C [7] 86.5% | viability, T/C [8] 73.6% | viability, T/C [9] 50.9% | viability, T/C [10] 59.4% | viability, T/C [11] 38.8% | viability, T/C [12] 24.9% | viability, T/C [13] 88.9% | viability, T/C [14] 69.8% | viability, T/C [15] 55.9% | viability, T/C [16] 59% | viability, T/C [17] 38.9% | viability, T/C [18] 25.4% | viability, T/C [19] 81.4% | viability, T/C [20] 71.8% | viability, T/C [21] 50.7% | viability, T/C [22] 63.1% | viability, T/C [23] 44.6% | viability, T/C [24] 23.5% | viability, T/C [25] 94.9% | viability, T/C [26] 65.3% | viability, T/C [27] 47.6% | viability, T/C [28] 56.2% | viability, T/C [29] 45.4% | viability, T/C [30] 24% | viability, T/C [31] 90.7% | viability, T/C [32] 69.5% | viability, T/C [33] 49.8% | viability, T/C [34] 56.5% | viability, T/C [35] 50.7% | viability, T/C [36] 27.7%
1410 nM: IC50 (second compound 1 µM)
1030 nM: IC50 (second compound 0.316 µM)
964 nM: IC50 (second compound 3.16 µM)
935 nM: IC50 (second compound 0.0316 µM)
980 nM: IC50 (second compound 10 µM)

CC(C)n1c(=O)n(C)c2cnc3cc(F)c(-c4ccc(OCCCN5CCCCC5)nc4)cc3c21 + Cc1[nH]c2ccc(F)cc2c1-c1nc2c3cccnc3c3ncccc3c2[nH]1
inactive: viability, T/C [1] 100% | viability, T/C [2] 102% | viability, T/C [3] 107% | viability, T/C [4] 102% | viability, T/C [5] 107% | viability, T/C [6] 84% | viability, T/C [7] 94.8% | viability, T/C [8] 115% | viability, T/C [9] 98.5% | viability, T/C [10] 95.4% | viability, T/C [11] 105% | viability, T/C [12] 79.9% | viability, T/C [13] 102% | viability, T/C [14] 101% | viability, T/C [15] 102% | viability, T/C [16] 107% | viability, T/C [17] 110% | viability, T/C [18] 83.5% | viability, T/C [19] 98.4% | viability, T/C [20] 106% | viability, T/C [21] 101% | viability, T/C [22] 107% | viability, T/C [23] 128% | viability, T/C [24] 79.3% | viability, T/C [25] 105% | viability, T/C [26] 103% | viability, T/C [27] 115% | viability, T/C [28] 98.6% | viability, T/C [29] 111% | viability, T/C [30] 83.8% | viability, T/C [31] 102% | viability, T/C [32] 103% | viability, T/C [33] 108% | viability, T/C [34] 103% | viability, T/C [35] 103% | viability, T/C [36] 88.9%
> 10000 nM: IC50 (second compound 0.0316 µM) | IC50 (second compound 0.1 µM) | IC50 (second compound 0.316 µM) | IC50 (second compound 1 µM) | IC50 (second compound 3.16 µM) | IC50 (second compound 10 µM)

Cc1cccc(N(C)C(=O)C2C(O)CCN2c2nc(C)cc(C(F)(F)F)c2C#N)c1 (stereo not drawn) + CN(C)c1ccc(Nc2c3ccc(NC(=O)CCN4CCCC4)cc3nc3cc(NC(=O)CCN4CCCC4)ccc23)cc1
> 10000 nM: IC50 (second compound 0.0316 µM) | IC50 (second compound 0.1 µM) | IC50 (second compound 0.316 µM) | IC50 (second compound 1 µM) | IC50 (second compound 3.16 µM) | IC50 (second compound 10 µM)
inactive: viability, T/C [1] 106% | viability, T/C [2] 106% | viability, T/C [3] 101% | viability, T/C [4] 105% | viability, T/C [5] 103% | viability, T/C [6] 99.3% | viability, T/C [7] 101% | viability, T/C [8] 107% | viability, T/C [9] 100% | viability, T/C [10] 102% | viability, T/C [11] 103% | viability, T/C [12] 99.2% | viability, T/C [13] 104% | viability, T/C [14] 103% | viability, T/C [15] 98.5% | viability, T/C [16] 102% | viability, T/C [17] 108% | viability, T/C [18] 98% | viability, T/C [19] 104% | viability, T/C [20] 90.3% | viability, T/C [21] 94.3% | viability, T/C [22] 93.5% | viability, T/C [23] 96.7% | viability, T/C [24] 88.2% | viability, T/C [25] 89.9% | viability, T/C [26] 78.1% | viability, T/C [27] 83.8% | viability, T/C [28] 78.6% | viability, T/C [29] 87% | viability, T/C [30] 74.2% | viability, T/C [31] 68.8% | viability, T/C [32] 71.7% | viability, T/C [33] 76.5% | viability, T/C [34] 74.7% | viability, T/C [35] 69.8% | viability, T/C [36] 63.5%

Nc1ccn(C2OC(CO)C(O)C2(F)F)c(=O)n1 (stereo not drawn) + Cc1cnc(CNC(=O)c2c(=O)c3ccc(N4CCCN(C)CC4)nc3n3c2sc2ccccc23)cn1
inactive: viability, T/C [1] 75.9% | viability, T/C [2] 52.3% | viability, T/C [3] 46.6% | viability, T/C [4] 9.53% | viability, T/C [7] 63.6% | viability, T/C [8] 61% | viability, T/C [9] 32.8% | viability, T/C [13] 28.4% | viability, T/C [14] 18.3%
< 31.6 nM: IC50 (second compound 0.316 µM) | IC50 (second compound 1 µM) | IC50 (second compound 3.16 µM) | IC50 (second compound 10 µM)
active: viability, T/C [5] 6.32% | viability, T/C [6] 3.33% | viability, T/C [10] 9.17% | viability, T/C [11] 3.78% | viability, T/C [12] 2.52% | viability, T/C [15] 10.9% | viability, T/C [16] 3.62% | viability, T/C [17] 2.32% | viability, T/C [18] 1.88% | viability, T/C [19] 5.32% | viability, T/C [20] 4.52% | viability, T/C [21] 2.56% | viability, T/C [22] 1.63% | viability, T/C [23] 1.61% | viability, T/C [24] 1.61% | viability, T/C [25] 2.51% | viability, T/C [26] 2.77% | viability, T/C [27] 1.64% | viability, T/C [28] 1.52% | viability, T/C [29] 1.19% | viability, T/C [30] 0.24% | viability, T/C [31] 1.6% | viability, T/C [32] 1.03% | viability, T/C [33] 1.41% | viability, T/C [34] 0.26% | viability, T/C [35] 0.21% | viability, T/C [36] 0.2%
168 nM: IC50 (second compound 0.0316 µM)
154 nM: IC50 (second compound 0.1 µM)

Reference: PubChem BioAssay AID2060491 (Molecular Pharmacology Branch, DTP, NCI, 2025)
